Assay results published in US20250127801A1, “BRIDGED TRICYCLIC CARBAMOYLPYRIDONE COMPOUNDS AND USES THEREOF” (priority 2023, published 2025).
Where two headings read alike, the source gives them in different places.

Legend:
HIV-1 (IIIB) = test: microbe, parasite or virus in culture; type: cell-based
in vitro = settings: human; for CC50 at 5 days: uninfected MT-4 cells
[1] = Human immunodeficiency virus 1, MT4, 120 h, HIV-1 (IIIB) replication in MT-4 cells, 5 days incubation, Cell Titer Glo, read-out: MT4 EC50
[2] = Human immunodeficiency virus 1, IIIB, MT4, 120 h, read-out: MT4 EC50 (nM)

Row | SMILES | EC50 (HIV-1 (IIIB); [1]) [nM] | CC50 at 5 days (in vitro) [µM] | EC50 (HIV-1 (IIIB); [2]) [nM] | CC50 (in vitro) [µM]
1 | COC1=NO[C@@]2(CC[C@H](C)N3C[C@H]2n2cc(C(=O)NCc4ccc(F)cc4F)c(=O)c(OCOC(=O)N(C)C[C@@H]4CCCN4C(=O)OCOP(=O)(O)O)c2C3=O)C1 [Compound 16, (phosphonooxy)methyl (2S)-2-(((((((3′S,5S,7′R)-10′-((2,4-difluorobenzyl)carbamoyl)-3-methoxy-3′-methyl-1′,11′-dioxo-1′,4′,5′,11′-tetrahydro-3′H,4H,7′H-spiro[isoxazole-5,6′-[2,7]methanopyrido[1,2-a][1,4]diazonin]-12′-yl)oxy)methoxy)carbonyl)(methyl)amino)methyl)pyrrolidine-1-carboxylate] | 2.93 | 16 |  | 
2 | COC1=NO[C@@]2(CC[C@H](C)N3C[C@H]2n2cc(C(=O)NCc4ccc(F)cc4F)c(=O)c(OCOP(=O)(O)OCc4ccccc4)c2C3=O)C1 [Compound 18, benzyl ((((3′S,5S,7′R)-10′-((2,4-difluorobenzyl)carbamoyl)-3-methoxy-3′-methyl-1′,11′-dioxo-1′,4′,5′,11′-tetrahydro-3′H,4H,7′H-spiro[isoxazole-5,6′-[2,7]methanopyrido[1,2-a][1,4]diazonin]-12′-yl)oxy)methyl) hydrogen phosphate] | 12.3 | ≥ 50 |  | 
3 | COC1=NO[C@@]2(CC[C@H](C)N3C[C@H]2n2cc(C(=O)NCc4ccc(F)cc4F)c(=O)c(OCOC(=O)CC(C)(C)c4c(CC(=O)O)cc(C)cc4OP(=O)(O)O)c2C3=O)C1 [Compound 21, 2-(2-(4-((((3′S,5S,7′R)-10′-((2,4-difluorobenzyl)carbamoyl)-3-methoxy-3′-methyl-1′,11′-dioxo-1′,4′,5′,11′-tetrahydro-3′H,4H,7′H-spiro[isoxazole-5,6′-[2,7]methanopyrido[1,2-a][1,4]diazonin]-12′-yl)oxy)methoxy)-2-methyl-4-oxobutan-2-yl)-5-methyl-3-(phosphonooxy)phenyl)acetic acid] |  |  | 2.54 | 12.6
4 | COC1=NO[C@@]2(CC[C@H](C)N3C[C@H]2n2cc(C(=O)NCc4ccc(F)cc4F)c(=O)c(OC(=O)Cc4ccc(OP(=O)(O)O)cc4)c2C3=O)C1 [Compound 29, (3′S,5S,7′R)-10′-((2,4-difluorobenzyl)carbamoyl)-3-methoxy-3′-methyl-1′,11′-dioxo-1′,4′,5′,11′-tetrahydro-3′H,4H,7′H-spiro[isoxazole-5,6′-[2,7]methanopyrido[1,2-a][1,4]diazonin]-12′-yl 2-(4-(phosphonooxy)phenyl)acetate] |  |  | 2.01 | 27.8
5 | CC1=NO[C@@]2(CC[C@H](C)N3C[C@H]2n2cc(C(=O)NCc4ccc(F)cc4F)c(=O)c(OCOC(=O)N(C)c4ncccc4CN(CC(=O)N[C@@H](CC(=O)O)C(=O)O)C(=O)OCOP(=O)(O)O)c2C3=O)C1 [Compound 36, N-((2-((((((3′S,5S,7′R)-10′-((2,4-difluorobenzyl)carbamoyl)-3,3′-dimethyl-1′,11′-dioxo-1′,4′,5′,11′-tetrahydro-3′H,4H,7′H-spiro[isoxazole-5,6′-[2,7]methanopyrido[1,2-a][1,4]diazonin]-12′-yl)oxy)methoxy)carbonyl)(methyl)amino)pyridin-3-yl)methyl)-N-(((phosphonooxy)methoxy)carbonyl)glycyl-L-aspartic acid] | 3.09 | 22 |  | 
6 | CC1=NO[C@@]2(CC[C@H](C)N3C[C@H]2n2cc(C(=O)NCc4ccc(F)cc4F)c(=O)c(OCOC(=O)CC(C)(C)c4c(CC(=O)N[C@@H](CCC(=O)O)C(=O)O)cc(C)cc4OP(=O)(O)O)c2C3=O)C1 [Compound 42, (2-(2-(4-((((3′S,5S,7′R)-10′-((2,4-difluorobenzyl)carbamoyl)-3,3′-dimethyl-1′,11′-dioxo-1′,4′,5′,11′-tetrahydro-3′H,4H,7′H-spiro[isoxazole-5,6′-[2,7]methanopyrido[1,2-a][1,4]diazonin]-12′-yl)oxy)methoxy)-2-methyl-4-oxobutan-2-yl)-5-methyl-3-(phosphonooxy)phenyl)acetyl)-L-glutamic acid] |  |  | 1.9 | 15.7
7 | CC1=NO[C@@]2(CC[C@H](C)N3C[C@H]2n2cc(C(=O)NCc4ccc(F)cc4F)c(=O)c(OCOC(=O)O[C@@H]4CCCC[C@@H]4OP(=O)(O)O)c2C3=O)C1 [Compound 50, (((3′S,5S,7′R)-10′-((2,4-difluorobenzyl)carbamoyl)-3,3′-dimethyl-1′,11′-dioxo-1′,4′,5′,11′-tetrahydro-3′H,4H,7′H-spiro[isoxazole-5,6′-[2,7]methanopyrido[1,2-a][1,4]diazonin]-12′-yl)oxy)methyl ((1R,2S)-2-(phosphonooxy)cyclohexyl) carbonate] | 1.69 | 21.6 |  | 
8 | CC1=NO[C@@]2(CC[C@H](C)N3C[C@H]2n2cc(C(=O)NCc4ccc(F)cc4F)c(=O)c(OCOC(=O)OC[C@@H]4CCCC[C@@H]4OP(=O)(O)O)c2C3=O)C1 [Compound 52, (((3′S,5S,7′R)-10′-((2,4-difluorobenzyl)carbamoyl)-3,3′-dimethyl-1′,11′-dioxo-1′,4′,5′,11′-tetrahydro-3′H,4H,7′H-spiro[isoxazole-5,6′-[2,7]methanopyrido[1,2-a][1,4]diazonin]-12′-yl)oxy)methyl (((1S,2S)-2-(phosphonooxy)cyclohexyl)methyl) carbonate] | 1.47 | 13 |  | 
9 | CC1=NO[C@@]2(CC[C@H](C)N3C[C@H]2n2cc(C(=O)NCc4ccc(F)cc4F)c(=O)c(OCOC(=O)N(C)c4ncccc4CN(CC(=O)N[C@@H](CCC(=O)O)C(=O)O)C(=O)OCOP(=O)(O)O)c2C3=O)C1 [Compound 60, N-((2-((((((3′S,5S,7′R)-10′-((2,4-difluorobenzyl)carbamoyl)-3,3′-dimethyl-1′,11′-dioxo-1′,4′,5′,11′-tetrahydro-3′H,4H,7′H-spiro[isoxazole-5,6′-[2,7]methanopyrido[1,2-a][1,4]diazonin]-12′-yl)oxy)methoxy)carbonyl)(methyl)amino)pyridin-3-yl)methyl)-N-(((phosphonooxy)methoxy)carbonyl)glycyl-L-glutamic acid] |  |  | 1.59 | 13.8
10 | CC1=NO[C@@]2(CC[C@H](C)N3C[C@H]2n2cc(C(=O)NCc4ccc(F)cc4F)c(=O)c(OCOC(=O)O[C@H]4CCCCC[C@@H]4OP(=O)(O)O)c2C3=O)C1 [Compound 77, (((3′S,5S,7′R)-10′-((2,4-difluorobenzyl)carbamoyl)-3,3′-dimethyl-1′,11′-dioxo-1′,4′,5′,11′-tetrahydro-3′H,4H,7′H-spiro[isoxazole-5,6′-[2,7]methanopyrido[1,2-a][1,4]diazonin]-12′-yl)oxy)methyl ((1S,2S)-2-(phosphonooxy)cycloheptyl) carbonate] | 2.05 | 19.4 |  | 
11 | CC1=NO[C@@]2(CC[C@H](C)N3C[C@H]2n2cc(C(=O)NCc4ccc(F)cc4F)c(=O)c(OCOC(=O)CC(C)(C)c4c(CC(=O)NCP(=O)(O)O)cc(C)cc4OP(=O)(O)O)c2C3=O)C1 [Compound 81, ((2-(2-(4-((((3′S,5S,7′R)-10′-((2,4-difluorobenzyl)carbamoyl)-3,3′-dimethyl-1′,11′-dioxo-1′,4′,5′,11′-tetrahydro-3′H,4H,7′H-spiro[isoxazole-5,6′-[2,7]methanopyrido[1,2-al][1,4]diazonin]-12′-yl)oxy)methoxy)-2-methyl-4-oxobutan-2-yl)-5-methyl-3-(phosphonooxy)phenyl)acetamido)methyl)phosphonic acid] |  |  | 2.09 | 14.4
12 | CC1=NO[C@@]2(CC[C@H](C)N3C[C@H]2n2cc(C(=O)NCc4ccc(F)cc4F)c(=O)c(OC(=O)N(C)c4ncccc4CN(CCC(F)(F)F)C(=O)OCOP(=O)(O)O)c2C3=O)C1 [Compound 82, (3′S,5S,7′R)-10′-((2,4-difluorobenzyl)carbamoyl)-3,3′-dimethyl-1′,11′-dioxo-1′,4′,5′,11′-tetrahydro-3′H,4H,7′H-spiro[isoxazole-5,6′-[2,7]methanopyrido[1,2-a][1,4]diazonin]-12′-yl methyl(3-(((((phosphonooxy)methoxy)carbonyl)(3,3,3-trifluoropropyl)amino)methyl)pyridin-2-yl)carbamate] |  |  | 2.17 | 8.52
13 | COCCN(Cc1cccnc1N(C)C(=O)Oc1c2n(cc(C(=O)NCc3ccc(F)cc3F)c1=O)[C@@H]1CN(C2=O)[C@@H](C)CC[C@]12CC(C)=NO2)C(=O)OCOP(=O)(O)O [Compound 83, (3′S,5S,7′R)-10′-((2,4-difluorobenzyl)carbamoyl)-3,3′-dimethyl-1′,11′-dioxo-1′,4′,5′,11′-tetrahydro-3′H,4H,7′H-spiro[isoxazole-5,6′-[2,7]methanopyrido[1,2-a][1,4]diazonin]-12′-yl (3-(((2-methoxyethyl)(((phosphonooxy)methoxy)carbonyl)amino)methyl)pyridin-2-yl)(methyl)carbamate] |  |  | 1.36 | 13.2
14 | CCCCCCCCCCCCCC(=O)NCc1ccccc1C(=O)Oc1c2n(cc(C(=O)NCc3ccc(F)cc3F)c1=O)[C@@H]1CN(C2=O)[C@@H](C)CC[C@]12CC(OC)=NO2 [Compound 101, (3′S,5S,7′R)-10′-((2,4-difluorobenzyl)carbamoyl)-3-methoxy-3′-methyl-1′,11′-dioxo-1′,4′,5′,11′-tetrahydro-3′H,4H,7′H-spiro[isoxazole-5,6′-[2,7]methanopyrido[1,2-a][1,4]diazonin]-12′-yl 2-(tetradecanamidomethyl)benzoate] |  | ≥ 50 |  | 
15 | CCCCCCCCCCCCCC(=O)NCc1ccccc1C(=O)Oc1c2n(cc(C(=O)NCc3ccc(F)cc3F)c1=O)[C@@H]1CN(C2=O)[C@@H](C)CC[C@]12CC(C)=NO2 [Compound 102, (3′S,5S,7′R)-10′-((2,4-difluorobenzyl)carbamoyl)-3,3′-dimethyl-1′,11′-dioxo-1′,4′,5′,11′-tetrahydro-3′H,4H,7′H-spiro[isoxazole-5,6′-[2,7]methanopyrido[1,2-a][1,4]diazonin]-12′-yl 2-(tetradecanamidomethyl)benzoate] |  | 31.8 |  | 
